Target: T1, ferroportin (Fpn) (Mus musculus, UniProt Q9JHI9)
T1 construct: endogenous in cells; host or cells: J774 mouse macrophage cell line, induced with Fe(III)NTA
T1 sequence (Q9JHI9 1-570): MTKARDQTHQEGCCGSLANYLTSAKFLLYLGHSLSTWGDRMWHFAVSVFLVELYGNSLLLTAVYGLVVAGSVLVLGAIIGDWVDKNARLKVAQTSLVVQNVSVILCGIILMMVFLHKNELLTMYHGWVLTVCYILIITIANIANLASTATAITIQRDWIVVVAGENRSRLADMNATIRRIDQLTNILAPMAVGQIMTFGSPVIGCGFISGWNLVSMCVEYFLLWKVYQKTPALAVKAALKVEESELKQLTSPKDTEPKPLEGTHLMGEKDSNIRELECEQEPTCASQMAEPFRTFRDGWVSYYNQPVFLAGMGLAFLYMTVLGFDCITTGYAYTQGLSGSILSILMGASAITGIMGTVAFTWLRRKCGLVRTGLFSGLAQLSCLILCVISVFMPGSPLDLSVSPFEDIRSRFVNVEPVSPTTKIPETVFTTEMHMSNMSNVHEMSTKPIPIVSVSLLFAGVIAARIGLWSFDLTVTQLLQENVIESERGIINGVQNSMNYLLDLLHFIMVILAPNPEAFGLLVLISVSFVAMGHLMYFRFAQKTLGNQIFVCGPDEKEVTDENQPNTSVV
Experiment: Hepcidin Internalization Assay (J774)
Format: cell-based
Conditions: J774 cells, TMR-hepcidin 25 nM, 2 hours; read-out: IC 50, average (AVE) of multiple measurements, hepcidin internalization assay
Text: This cellular assay allows quantification of the binding of hepcidin to ferroportin (Fpn) through microscopic detection of internalization of a fluorescently labeled hepcidin into J774 cells. […] Binding of hepcidin to Fpn triggers internalization and degradation of both hepcidin and Fpn. […] Therefore, microscopic detection of cell-associated TMR fluorescence is a measure of hepcidin binding to Fpn and internalization of hepcidin and Fpn. If TMR-hepcidin is prevented from binding to Fpn, cellular TMR fluorescence remains low (Dürrenberger et al, 2013). The effect of small molecular weight Fpn inhibitor compounds in this assay was evaluated in vitro as described below. […] Cat. 655090) and grown at 37° C. with 5% CO2. After overnight incubation, cells were washed 3 times with pre-warmed DMEM w/o phenol red, 30 μl/well of DMEM w/o phenol red was added after the final wash and 10 μl/well of dilution series of test compounds were added in triplicates. […] Cells were incubated in a total volume of 50 μl at 37° C. with 5% CO2 for 2 hours, then Hoechst 33342 dye was added to a final concentration of 0.5 μg/ml to stain nuclei and further incubated for 10 min. at 37° C. with 5% CO2. […] After removal of the paraformaldehyde solution, cells were washed 3 times with PBS leaving 100 μl per well and the plates were sealed with foil plate seal. […] The acquired image data was analysed with the […] analysis software. […] IC50 values were calculated with the Sum(Mean) raw data using “log(inhibitor) vs. response” curve fitting of Prism 5 software (GraphPad Software Inc., version 5.02). For each data set the fit of the “log(inhibitor) vs. response (three parameters)” model was compared to the fit of the “log(inhibitor) vs. response-Variable slope (four parameters)” model and the IC50 data of the preferred model was used.

Row | IC50 | SMILES
1 | 40 nM | O=C(NCc1ncccc1F)c1coc(CCNCc2nc3cc4ccccc4cc3[nH]2)n1 [compound 1, 2-(2-(((1H-naphtho[2,3-d]imidazol-2-yl)methyl)amino)ethyl)-N-((3-fluoropyridin-2-yl)methyl)oxazole-4-carboxamide]
2 | 350 nM | O=C(NCc1ncccc1F)c1coc(CCNCc2nc3cnc4ccccc4c3[nH]2)n1 [compound 2, 2-(2-(((3H-imidazo[4,5-c]quinolin-2-yl)methyl)amino)ethyl)-N-((3-fluoropyridin-2-yl)methyl)oxazole-4-carboxamide]
3 | 593 nM | O=C(NCc1ncccc1F)c1coc(CCNCCc2nc3cnc4ccccc4c3[nH]2)n1 [compound 3, 2-(2-((2-(3H-imidazo[4,5-c]quinolin-2-yl)ethyl)amino)ethyl)-N-((3-fluoropyridin-2-yl)methyl)oxazole-4-carboxamide]
4 | 68 nM | O=C(NCc1ncccc1F)c1coc(CCNCc2nc3c(ccc4ccccc43)[nH]2)n1 [compound 4, 2-(2-(((3H-naphtho[1,2-d]imidazol-2-yl)methyl)amino)ethyl)-N-((3-fluoropyridin-2-yl)methyl)oxazole-4-carboxamide]
5 | 13 nM | O=C(NCc1ncccc1F)c1coc(CCNCCc2nc3c(ccc4ccccc43)[nH]2)n1 [compound 5, 2-(2-((2-(3H-naphtho[1,2-d]imidazol-2-yl)ethyl)amino)ethyl)-N-((3-fluoropyridin-2-yl)methyl)oxazole-4-carboxamide]
6 | 1600 nM | O=C(NCc1ccc2c(ccc3ccccc32)n1)c1coc(CCNCCc2nc3ccccc3[nH]2)n1 [compound 6, 2-(2-((2-(1H-benzo[d]imidazol-2-yl)ethyl)amino)ethyl)-N-(benzo[f]quinolin-3-ylmethyl)oxazole-4-carboxamide]
7 | 1590 nM | O=C(NCc1nc2ccccc2c2ccccc12)c1coc(CCNCCc2nc3ccccc3[nH]2)n1 [compound 7]
8 | 6700 nM | O=C(NCc1nc2ccccc2c2ccccc12)c1coc(CCNCCc2nc3c(ccc4ccccc43)[nH]2)n1 [compound 8]
9 | 13900 nM | O=C(NCc1ccc2c(ccc3ccccc32)n1)c1coc(CCNCCc2nc3c(cnc4ccccc43)[nH]2)n1 [compound 12]
10 | 55 nM | Cc1cccnc1CNC(=O)c1coc(CCNCCc2nc3c(ccc4ccccc43)[nH]2)n1 [compound 13]
11 | 33 nM | O=C(NCc1ncccc1Cl)c1coc(CCNCCc2nc3c(ccc4ccccc43)[nH]2)n1 [compound 14]
12 | 33 nM | COc1cccnc1CNC(=O)c1coc(CCNCCc2nc3c(ccc4ccccc43)[nH]2)n1 [compound 15]
13 | 443 nM | O=C(NCc1ncccc1C(F)(F)F)c1coc(CCNCCc2nc3c(ccc4ccccc43)[nH]2)n1 [compound 16]
14 | 53 nM | O=C(NCc1ncccc1F)c1coc(CCNCCc2nc3c(-c4cccnc4)cccc3[nH]2)n1 [compound 18]
15 | 6 nM | O=C(NCc1ncccc1F)c1coc(CCNCCc2nc3cc(-c4ccccc4)ccc3[nH]2)n1 [compound 19]
16 | 189 nM | O=C(NCc1ncccc1F)c1coc(CCNCCc2nc3c(-c4ccncc4)cccc3[nH]2)n1 [compound 20]
17 | 144 nM | O=C(NCc1ncccc1F)c1coc(CCNCCc2nc3c(-c4cccc(Cl)c4)cccc3[nH]2)n1 [compound 28]
18 | 27 nM | O=C(NCc1ncccc1F)c1coc(CCNCCc2nc3cc(-n4cccc4)ccc3[nH]2)n1 [compound 32]
19 | 7 nM | O=C(NCc1ncccc1F)c1coc(CCNCCc2nc3cc4c(cc3[nH]2)OCCO4)n1 [compound 34]
20 | 57 nM | O=C(NCc1ncccc1F)c1coc(CCNCCc2nc3ccc(CN4CCOCC4)cc3[nH]2)n1 [compound 35]
21 | 11 nM | O=C(NCc1ncccc1F)c1coc(CCNCCc2nc3cc4c(cc3[nH]2)OCO4)n1 [compound 36]
22 | 34 nM | O=C(NCc1ncccc1F)c1coc(CCNCCc2nc3cccc(C#Cc4ccccc4)c3[nH]2)n1 [compound 37]
23 | 12 nM | O=C(NCc1ncccc1F)c1coc(CCNCCc2nc3c4c(ccc3[nH]2)CCCC4)n1 [compound 39]
24 | 1040 nM | O=C(NCc1ncccc1F)c1coc(CCNCCc2nc3ccc(-c4nn[nH]n4)cc3[nH]2)n1 [compound 40]

Row | IC50 | SMILES
25 | 9 nM | O=C(NCc1ncccc1F)c1coc(CCNCCc2nc3cc4ccccc4cc3[nH]2)n1 [compound 43]
26 | 6 nM | O=C(NCc1ncccc1F)c1coc(CCNCCc2nc3cc(-c4ccccc4Cl)ccc3[nH]2)n1 [compound 44]
27 | 6 nM | COc1ccccc1-c1ccc2[nH]c(CCNCCc3nc(C(=O)NCc4ncccc4F)co3)nc2c1 [compound 45]
28 | 7 nM | O=C(NCc1ncccc1F)c1coc(CCNCCc2nc3cc(-c4ccccc4F)ccc3[nH]2)n1 [compound 46]
29 | 11 nM | Cc1cccnc1CNC(=O)c1coc(CCNCCc2nc3cc4c(cc3[nH]2)OCCO4)n1 [compound 47]
30 | 26 nM | COc1cccnc1CNC(=O)c1coc(CCNCCc2nc3cc4c(cc3[nH]2)OCCO4)n1 [compound 48]
31 | 18 nM | COc1ccccc1-c1ccc2[nH]c(CCNCCc3nc(C(=O)NCc4ncccc4C)co3)nc2c1 [compound 49]
32 | 19 nM | COc1cccnc1CNC(=O)c1coc(CCNCCc2nc3c4c(ccc3[nH]2)CCCC4)n1 [compound 50]
33 | 17 nM | COc1ccccc1-c1ccc2[nH]c(CCNCCc3nc(C(=O)NCc4ncccc4OC)co3)nc2c1 [compound 51]
34 | 26 nM | Cc1cccnc1CNC(=O)c1coc(CCNCCc2nc3cc(-c4ccccc4)ccc3[nH]2)n1 [compound 52]
35 | 16 nM | COc1cccnc1CNC(=O)c1coc(CCNCCc2nc3cc(-c4ccccc4)ccc3[nH]2)n1 [compound 53]
36 | 37 nM | COc1cccnc1CNC(=O)c1coc(CCNCCc2nc3cc(-n4cccc4)ccc3[nH]2)n1 [compound 54]
37 | 2 nM | O=C(NCc1ncccc1Cl)c1coc(CCNCCc2nc3cc4c(cc3[nH]2)OCCO4)n1 [compound 55]
38 | 49 nM | O=C(NCc1ncccc1C(F)(F)F)c1coc(CCNCCc2nc3cc4c(cc3[nH]2)OCCO4)n1 [compound 56]
39 | 27 nM | O=C(NCc1ncccc1F)c1coc(CCNCCc2nc3cc(-c4ccc(Cl)cc4)ccc3[nH]2)n1 [compound 57]
40 | 171 nM | O=C(NCc1ncccc1C(F)(F)F)c1coc(CCNCCc2nc3cc(-n4cccc4)ccc3[nH]2)n1 [compound 58]
41 | 28 nM | O=C(NCc1ncccc1Cl)c1coc(CCNCCc2nc3cc(-n4cccc4)ccc3[nH]2)n1 [compound 59]
42 | 13 nM | Cc1ccc(-c2ccc3[nH]c(CCNCCc4nc(C(=O)NCc5ncccc5F)co4)nc3c2)cc1 [compound 60]
43 | 11 nM | O=C(NCc1ncccc1F)c1coc(CCNCCc2nc3cc(-c4cccc(F)c4)ccc3[nH]2)n1 [compound 61]
44 | 8 nM | Cc1ccccc1-c1ccc2[nH]c(CCNCCc3nc(C(=O)NCc4ncccc4F)co3)nc2c1 [compound 62]
45 | 8 nM | COc1cccc(-c2ccc3[nH]c(CCNCCc4nc(C(=O)NCc5ncccc5F)co4)nc3c2)c1 [compound 63]
46 | 10 nM | COc1ccc(-c2ccc3[nH]c(CCNCCc4nc(C(=O)NCc5ncccc5F)co4)nc3c2)cc1 [compound 64]
47 | 15 nM | Cc1cccc(-c2ccc3[nH]c(CCNCCc4nc(C(=O)NCc5ncccc5F)co4)nc3c2)c1 [compound 65]
48 | 68 nM | O=C(NCc1ccccn1)c1coc(CCNCCc2nc3cc(-c4ccc(F)cc4)ccc3[nH]2)n1 [compound 66]

Source: patent publication US20240239780A1, “MODIFIED FERROPORTIN INHIBITORS” (Vifor (International) AG, priority 2021, published 2024)
